Test results published in patent US20090269394A1, “METHODS AND COMPOSITIONS FOR TREATING ONCHOMYCOSIS” (priority 2008, published 2009).
≈ marks a conversion by molar mass, not a printed value. Where two headings read alike, the source gives them in different places.

Tests used:
[1] = system: Candida albicans isolates; experiment: MIC/MFC microtiter broth dilution; type: cell-based; conditions: NB-002 as μg CPC/ml
Alternaria spp. = experiment: MIC against rare onychomycosis pathogens (CLSI M 38-A); type: cell-based; conditions: 3 isolates; NB-002 as μg CPC/ml
Text: (§1) Methods: All fungi were from patients, many of which had onychomycosis or another tinea infection.

Aspergillus spp. = experiment: as above; type: cell-based; conditions: 5 isolates; NB-002 as μg CPC/ml
Text: as §1

Chaetomium spp. = experiment: as above; type: cell-based; conditions: 3 isolates; NB-002 as μg CPC/ml
Text: as §1

Curvularia spp. = experiment: as above; type: cell-based; conditions: 3 isolates; NB-002 as μg CPC/ml
Text: as §1

Epicoccum nigrum = experiment: as above; type: cell-based; conditions: 3 isolates; NB-002 as μg CPC/ml
Text: as §1

Paecilomyces spp. = experiment: as above; type: cell-based; conditions: 4 isolates; NB-002 as μg CPC/ml
Text: as §1

Phoma sp. = experiment: as above; type: cell-based; conditions: 3 isolates; NB-002 as μg CPC/ml
Text: as §1

Scedosporium spp. = experiment: as above; type: cell-based; conditions: 5 isolates; NB-002 as μg CPC/ml
Text: as §1

Scopulariopsis spp. = experiment: as above; type: cell-based; conditions: 5 isolates; NB-002 as μg CPC/ml
Text: as §1

Scytalydium spp. = experiment: as above; type: cell-based; conditions: 10 isolates; NB-002 as μg CPC/ml
Text: as §1

Trichophyton soundanense = experiment: as above; type: cell-based; conditions: 3 isolates; NB-002 as μg CPC/ml
Text: as §1

Trichophyton verrucosum = experiment: as above; type: cell-based; conditions: 3 isolates; NB-002 as μg CPC/ml
Text: as §1

[2] = system: Trichophyton mentagrophytes; experiment: MIC/MFC microtiter broth dilution; type: cell-based; conditions: for MIC90 / MIC50: Trichophyton mentagrophytes; for MFC50 / MFC90 / MIC range: n = 14 isolates, NB-002 as μg CPC/ml
Epidermophyton floccosum [3] = experiment: MIC/MFC microtiter broth dilution; type: cell-based; conditions: n = 6 isolates; NB-002 as μg CPC/ml
Acremonium spp. = experiment: MIC against rare onychomycosis pathogens (CLSI M 38-A); type: cell-based; conditions: 5 isolates; NB-002 as μg CPC/ml
Text: as §1

Fusarium spp. = experiment: as above; type: cell-based; conditions: 10 isolates; NB-002 as μg CPC/ml
Text: as §1

Epidermophyton floccosum [4] = experiment: microbe, parasite or virus in culture; type: cell-based; conditions: read-out: Final MIC
Procedure: (§2) Phenotypically resistant isolates were tested for MICs and compared to parental MICs.

[5] = system: Trichophyton mentagrophytes; experiment: microbe, parasite or virus in culture; type: cell-based
Procedure: as §2

Trichophyton rubrum [6] = experiment: microbe, parasite or virus in culture; type: cell-based
Procedure: as §2

T. rubrum = experiment: Time-kill experiments on mycelia and microconidia; type: cell-based, Trichophyton rubrum
Procedure: Time-kill experiments. […] Part of the conidial suspension was pelleted and resuspended in RPMI 1640 medium and grown for 16-18 hours overnight at room temperature to allow germination of microconidia. After germination, the hyphae were collected by centrifugation and resuspended in distilled water. […] Colony-forming units were counted after four days of incubation at 35° C.

Trichophyton tonsurans = experiment: MIC/MFC microtiter broth dilution; type: cell-based
Microsporum canis = experiment: MIC/MFC microtiter broth dilution; type: cell-based; conditions: M. canis n = 10 (tinea capitis species)
T. violaceum = experiment: MIC against species that cause tinea capitis; type: cell-based; conditions: T. violaceum n = 10
M. audouinii = experiment: MIC against species that cause tinea capitis; type: cell-based; conditions: M. audouinii n = 10
Trichophyton rubrum [7] = type: cell-based; conditions: 10^7 conidia plated; NBD031-b; drug plate 0.125 μg/ml
[8] = cited from earlier work
[9] = Azole-Resistant isolates (n = 24)
[10] = Azole-Susceptible isolates (n = 10)
[11] = Candida albicans, Azole-Resistant isolates (n = 24), read-out: MIC90
[12] = Candida albicans, Azole-Susceptible isolates (n = 10), read-out: MIC90
[13] = read-out: Final MIC, isolate NBD012-a, selected on NB-002 drug plate 8 μg/ml
[14] = read-out: Final MIC, isolate NBD012-b, selected on NB-002 drug plate 16 μg/ml
[15] = read-out: Final MIC, isolate NBD012-c, selected on NB-002 drug plate 32 μg/ml
[16] = read-out: Final MIC, isolate NBD012-d, selected on terbinafine drug plate 0.0625 μg/ml
[17] = read-out: Final MIC, isolate NBD013-a, selected on itraconazole drug plate […]
[18] = read-out: Final MIC, isolate NBD014-a, selected on NB-002 drug plate 32 μg/ml
[19] = read-out: Final MIC, isolate NBD031-a, selected on NB-002 drug plate 16 μg/ml
[20] = read-out: Final MIC, isolate NBD031-b, selected on itraconazole drug plate 0.125 μg/ml
[21] = read-out: Final MIC, isolate NBD031-c, selected on terbinafine drug plate 0.125 μg/ml
[22] = T. tonsurans n = 10 (tinea capitis species)

MIC50 ([2]; read-out: MIC50) [µg/mL]	Compound	MFC90 [1, 9] [µg/mL]	MFC90 [1, 10] [µg/mL]	MIC range (Alternaria spp.) [µg/mL]	MIC range (Aspergillus spp.) [µg/mL]	MIC range (Chaetomium spp.) [µg/mL]	MIC range (Curvularia spp.) [µg/mL]	MIC range (Epicoccum nigrum) [µg/mL]	MIC range (Phoma sp.) [µg/mL]	MIC range (Trichophyton soundanense) [µg/mL]	MIC range (Trichophyton verrucosum)	MIC90 [2] [µg/mL]	MFC50 [2] [µg/mL]	MFC90 [2] [µg/mL]	MIC range [2] [µg/mL]	MIC range (Epidermophyton floccosum [3]) [µg/mL]	MIC90 [1, 11] [µg/mL]	MIC90 [1, 12] [µg/mL]	also measured
	C[C@@H]1[C@H](O)[C@@H](C)/C=C/C=C/C=C/C=C/C=C/C=C/C=C/[C@H](O[C@@H]2O[C@H](C)[C@@H](O)[C@H](N)[C@@H]2O)C[C@@H]2O[C@](O)(C[C@@H](O)C[C@@H](O)[C@H](O)CC[C@@H](O)C[C@@H](O)CC(=O)O[C@H]1C)C[C@H](O)[C@H]2C(=O)O [Amphotericin B]	4 (≈ 4.33 µM)	2 (≈ 2.16 µM)	1 (≈ 1.08 µM)	1 to 4	0.5 to 4	0.125 to 1	0.25 to 1	0.5 to 2	0.125 to 0.25	0.125 to 0.25 µg/mL								MIC90 [1, 9]: 2 µg/mL (≈ 2.16 µM); MIC90 [1, 10]: 2 µg/mL (≈ 2.16 µM); MIC range (Paecilomyces spp.): >16 µg/mL; MIC range (Scedosporium spp.): >16 µg/mL; MIC range (Scopulariopsis spp.): >16 µg/mL; MIC range (Scytalydium spp.): 0.5 to 1 µg/mL
0.25 (≈ 0.655 µM)	Clc1ccc(COC(Cn2ccnc2)c2ccc(Cl)cc2Cl)cc1 (stereo not shown) [Econazole]											0.25 (≈ 0.655 µM)	8 (≈ 21 µM)	>16	0.125 to 0.25	0.0625 to 0.125			MFC Range (Epidermophyton floccosum [3]): 0.0625 to 4 µg/mL
	OC(Cn1cncn1)(Cn1cncn1)c1ccc(F)cc1F [Fluconazole]	>64	>64														> 64	0.5 (≈ 1.63 µM)	
0.5 (≈ 1.42 µM)	COC1=CC(=O)C[C@@H](C)[C@]12Oc1c(Cl)c(OC)cc(OC)c1C2=O [Griseofulvin]											2 (≈ 5.67 µM)	8 (≈ 22.7 µM)	>16	0.25 to 4	1 to 2			MFC Range (Epidermophyton floccosum [3]): 1 to 16 µg/mL; MIC range (Trichophyton tonsurans; T. tonsurans (n = 6), NB-002 as μg CPC/ml): 0.5 to 1 µg/mL; MIC50 (Trichophyton tonsurans; [22]): 0.5 µg/mL (≈ 1.42 µM); MIC90 (Trichophyton tonsurans; [22]): 1 µg/mL (≈ 2.83 µM); MIC range (Trichophyton tonsurans; T. tonsurans n = 10 (tinea capitis species), in µg/mL): 0.5-1.0; MIC50 (Microsporum canis): 0.25 µg/mL (≈ 0.709 µM); MIC90 (Microsporum canis): 0.5 µg/mL (≈ 1.42 µM); MIC range (Microsporum canis; in µg/mL): 0.25-0.5; MIC50 (T. violaceum): 4 µg/mL (≈ 11.3 µM); MIC90 (T. violaceum): 4 µg/mL (≈ 11.3 µM); MIC range (T. violaceum; in µg/mL): 1.0-8.0; MIC50 (M. audouinii): 0.25 µg/mL (≈ 0.709 µM); MIC90 (M. audouinii): 1 µg/mL (≈ 2.83 µM); MIC range (M. audouinii; in µg/mL): 0.12-1.0
	CCC(C)n1ncn(-c2ccc(N3CCN(c4ccc(OCC5COC(Cn6cncn6)(c6ccc(Cl)cc6Cl)O5)cc4)CC3)cc2)c1=O (stereo not shown) [Itraconazole]	>16	>16	0.25 to 0.5	0.06 to 1	0.5 to 1	0.125 to 0.25	0.25 to 0.5	0.06 to 0.5	0.125 to 0.25	0.06 to 0.125 µg/mL	0.5 (≈ 0.709 µM)	8 (≈ 11.3 µM)	>16	0.0625 to 0.5	0.125 to 0.5	> 16	0.5 (≈ 0.709 µM)	MIC50 [2]: 0.125 µg/mL (≈ 0.177 µM); MIC range (Acremonium spp.): >8 µg/mL; MIC (Epidermophyton floccosum [4]): 0.25 µg/mL (≈ 0.354 µM); MIC [5, 13]: 0.0625 µg/mL (≈ 0.0886 µM); MIC [5, 14]: 0.0625 µg/mL (≈ 0.0886 µM); MIC [5, 15]: 0.0625 µg/mL (≈ 0.0886 µM); MIC [5, 16]: 0.0625 µg/mL (≈ 0.0886 µM); MIC [5, 17]: 0.125 µg/mL (≈ 0.177 µM); MIC [5, 18]: 0.0625 µg/mL (≈ 0.0886 µM); MIC (Trichophyton rubrum [6]; [19]): 0.0625 µg/mL (≈ 0.0886 µM); MIC (Trichophyton rubrum [6]; [20]): 0.0625 µg/mL (≈ 0.0886 µM); MIC (Trichophyton rubrum [6]; [21]): 0.0313 µg/mL (≈ 0.0444 µM); reduction of colony counts / activity on mycelia and microconidia (T. rubrum; 16×MIC, up to 24 hours, nongrowth conditions (FIG. 10)): no activity; # CFU recovered (Trichophyton rubrum [7]): 2
	CN(C/C=C/C#CC(C)(C)C)Cc1cccc2ccccc12.Cl [Terbinafine hydrochloride]																		solubility in ethanol ([8]; in words): soluble; solubility in methanol and dichloromethane ([8]; in words): freely soluble; solubility in water ([8]; in words): slightly soluble
	Clc1ccc(COC(Cn2ccnc2)c2ccc(Cl)cc2Cl)c(Cl)c1 (stereo not shown) [miconazole]																		Ethanol Solubility [8]: 94 mg/mL; Log P [8]: 6.1; Soybean Solubility [8]: 74 mg/mL; pKa [8]: 6.67

Compound	MIC50 ([2]; read-out: MIC50) [µg/mL]	MFC90 [1, 9] [µg/mL]	MFC90 [1, 10] [µg/mL]	MIC range (Alternaria spp.) [µg/mL]	MIC range (Aspergillus spp.) [µg/mL]	MIC range (Chaetomium spp.) [µg/mL]	MIC range (Curvularia spp.) [µg/mL]	MIC range (Epicoccum nigrum) [µg/mL]	MIC range (Phoma sp.) [µg/mL]	MIC range (Trichophyton soundanense) [µg/mL]	MIC range (Trichophyton verrucosum)	MIC90 [2] [µg/mL]	MFC50 [2] [µg/mL]	MFC90 [2] [µg/mL]	MIC range [2] [µg/mL]	MIC range (Epidermophyton floccosum [3]) [µg/mL]	MIC90 [1, 11] [µg/mL]	MIC90 [1, 12] [µg/mL]	also measured
Cc1cc(C2CCCCC2)n(O)c(=O)c1 [Ciclopirox]	0.5 (≈ 2.41 µM)	>32	>32	0.25 to 0.5	0.5 to 2	0.25 to 0.5	0.5 to 1	0.125 to 2	0.5 to 1	0.125 to 0.25	<=0.06-0.125 ug/ml	1 (≈ 4.82 µM)	1 (≈ 4.82 µM)	16 (≈ 77.2 µM)	0.125 to 1	0.5 (≈ 2.41 µM)	1 (≈ 4.82 µM)	4 (≈ 19.3 µM)	MIC range (Acremonium spp.): 0.5 to 4 µg/mL; MIC range (Fusarium spp.): 1 to 16 µg/mL; MIC range (Paecilomyces spp.): 8 to 16 µg/mL; MIC range (Scedosporium spp.): 0.5 to 8 µg/mL; MIC range (Scopulariopsis spp.): 0.5 to 2 µg/mL; MIC range (Scytalydium spp.): 0.5 to 1 µg/mL; MIC (Epidermophyton floccosum [4]): 4 µg/mL (≈ 19.3 µM); MIC [5, 13]: 4 µg/mL (≈ 19.3 µM); MIC [5, 14]: 4 µg/mL (≈ 19.3 µM); MIC [5, 15]: 4 µg/mL (≈ 19.3 µM); MIC [5, 16]: 4 µg/mL (≈ 19.3 µM); MIC [5, 17]: 4 µg/mL (≈ 19.3 µM); MIC [5, 18]: 4 µg/mL (≈ 19.3 µM); MIC (Trichophyton rubrum [6]; [19]): 4 µg/mL (≈ 19.3 µM); MIC (Trichophyton rubrum [6]; [20]): 4 µg/mL (≈ 19.3 µM); MIC (Trichophyton rubrum [6]; [21]): 4 µg/mL (≈ 19.3 µM); reduction in colony counts (T. rubrum; 16×MIC or 8 μg/ml, after 8 hours, nongrowing mycelia (not microconidia), isolate NBD032): 3 log; activity against the conidial form (T. rubrum; 16×MIC, up to 24 hours, nongrowth conditions): no activity
